pEC50: −log10 of the molar value.
Assays:
Assay type in all cases: cell-based, murine and human
Settings in all cases: GAL4-PPAR LBD chimera
[1] = target: T1, PPAR-delta (UniProt Q03181); test: PPAR-delta transactivation assay (GAL4 chimera, luciferase reporter) in CV-1 cells
T1 sequence (Q03181 1-441): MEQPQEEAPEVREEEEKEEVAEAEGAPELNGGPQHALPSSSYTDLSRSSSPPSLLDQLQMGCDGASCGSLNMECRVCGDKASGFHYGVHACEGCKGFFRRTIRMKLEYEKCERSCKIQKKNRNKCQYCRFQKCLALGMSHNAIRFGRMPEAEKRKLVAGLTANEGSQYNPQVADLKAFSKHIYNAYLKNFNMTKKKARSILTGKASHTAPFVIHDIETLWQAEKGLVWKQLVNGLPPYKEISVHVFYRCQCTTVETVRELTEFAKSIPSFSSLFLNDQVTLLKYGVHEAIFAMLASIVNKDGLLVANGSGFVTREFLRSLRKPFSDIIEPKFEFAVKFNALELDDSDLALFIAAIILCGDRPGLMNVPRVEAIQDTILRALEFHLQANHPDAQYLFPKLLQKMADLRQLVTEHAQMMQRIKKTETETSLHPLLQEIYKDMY
How it was run: (§1)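 CV-1 cells transiently transfected with murine or human PPAR-alpha, -gamma or -delta ligand-binding domain fused to GAL4 DNA-binding domain plus a GAL4-site luciferase reporter. After replating in phenol-red-free DME with 5% delipidated calf serum, cells were exposed to compound 20-24 h; luciferase read-out gave EC50.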

[2] = target: T2, PPAR-gamma (UniProt P37231); test: PPAR-gamma transactivation assay (GAL4 chimera, luciferase reporter) in CV-1 cells
T2 sequence (P37231 1-505): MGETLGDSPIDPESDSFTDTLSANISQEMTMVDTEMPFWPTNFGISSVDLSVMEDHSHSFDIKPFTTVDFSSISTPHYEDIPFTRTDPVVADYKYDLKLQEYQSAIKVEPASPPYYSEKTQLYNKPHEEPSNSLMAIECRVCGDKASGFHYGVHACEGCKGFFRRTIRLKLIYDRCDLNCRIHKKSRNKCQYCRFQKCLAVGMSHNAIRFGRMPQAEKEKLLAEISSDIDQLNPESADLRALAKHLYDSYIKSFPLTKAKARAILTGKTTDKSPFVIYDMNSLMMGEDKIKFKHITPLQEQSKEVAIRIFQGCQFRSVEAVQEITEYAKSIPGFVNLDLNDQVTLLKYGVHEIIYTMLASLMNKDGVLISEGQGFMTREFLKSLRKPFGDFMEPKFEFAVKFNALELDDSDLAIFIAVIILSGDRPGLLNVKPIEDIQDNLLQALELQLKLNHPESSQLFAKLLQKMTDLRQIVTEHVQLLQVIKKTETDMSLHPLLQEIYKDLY
How it was run: as §1

[3] = target: T3, PPAR-alpha (UniProt Q07869); test: PPAR-alpha transactivation assay (GAL4 chimera, luciferase reporter) in CV-1 cells
T3 sequence (Q07869 1-468): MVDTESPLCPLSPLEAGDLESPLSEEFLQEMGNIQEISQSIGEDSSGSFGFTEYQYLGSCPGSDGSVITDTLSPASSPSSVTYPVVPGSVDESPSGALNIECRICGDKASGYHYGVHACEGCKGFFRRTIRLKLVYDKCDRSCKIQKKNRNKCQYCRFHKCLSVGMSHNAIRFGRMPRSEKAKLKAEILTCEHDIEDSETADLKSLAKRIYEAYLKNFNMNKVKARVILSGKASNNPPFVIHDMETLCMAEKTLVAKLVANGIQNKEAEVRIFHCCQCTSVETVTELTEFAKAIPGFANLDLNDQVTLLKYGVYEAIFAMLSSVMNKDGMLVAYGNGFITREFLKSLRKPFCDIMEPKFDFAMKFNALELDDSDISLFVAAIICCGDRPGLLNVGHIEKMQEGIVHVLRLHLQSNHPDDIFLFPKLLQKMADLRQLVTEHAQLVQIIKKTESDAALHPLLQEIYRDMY
How it was run: as §1

Row | SMILES | pEC50 [1] | pEC50 [2] | pEC50 [3]
1 | O=C(O)C1Cc2cccc(S(=O)(=O)N3CCN(c4ccc(Cl)cc4)CC3)c2C1 (stereo not drawn) [Example 92, 4-[4-(4-chloro-phenyl)-piperazine-1-sulfonyl]-indan-2-carboxylic acid] | > 5.30 | 4.00 to 5.30 | 4.00 to 5.30
2 | C[C@H]1CN(c2ccc(OC(F)(F)F)cc2)CCN1S(=O)(=O)c1cccc2c1CC(C(=O)O)C2 (stereo partly drawn) [Example 93, 4-[2-(S)-Methyl-4-(4-trifluoromethoxy-phenyl)-piperazine-1-sulfonyl]-indan-2-carboxylic acid] | > 5.30 | 4.00 to 5.30 | 4.00 to 5.30
3 | C[C@H]1CN(c2ccc(C(F)(F)F)cn2)CCN1S(=O)(=O)c1cccc2c1CC(C(=O)O)C2 (stereo partly drawn) [Example 94, 4-[2-(S)-Methyl-4-(5-trifluoromethyl-pyridin-2-yl)-piperazine-1-sulfonyl]-indan-2-carboxylic acid] | > 5.30 | 4.00 to 5.30 | 4.00 to 5.30
4 | C[C@@H]1CN(Cc2ccc(OC(F)(F)F)cc2)C[C@H](C)N1S(=O)(=O)c1cccc2c1CC(C(=O)O)C2 (stereo partly drawn) [Example 95, 4-[cis-2,6-dimethyl-4-(4-trifluoromethoxyl-benzyl)-piperazine-1-sulfonyl]-indan-2-carboxylic acid] | > 5.30 | 4.00 to 5.30 | 4.00 to 5.30
5 | C[C@@H]1CN(Cc2ccc(C(F)(F)F)cc2)C[C@H](C)N1S(=O)(=O)c1cccc2c1CC(C(=O)O)C2 (stereo partly drawn) [Example 96, 4-[cis-2,6-dimethyl-4-(4-trifluoromethyl-benzyl)-piperazine-1-sulfonyl]-indan-2-carboxylic acid] | > 5.30 | 4.00 to 5.30 | < 4.00
6 | O=C(O)C1Cc2cccc(S(=O)(=O)N3CCN(Cc4ccc(C(F)(F)F)cc4)CC3)c2C1 (stereo not drawn) [Example 97, 4-[4-(4-trifluoromethyl-benzyl)-piperazine-1-sulfonyl]-indan-2-carboxylic acid] | > 5.30 | 4.00 to 5.30 | 4.00 to 5.30
7 | O=C(O)C1Cc2cccc(S(=O)(=O)N3CCN(Cc4ccc(OC(F)(F)F)cc4)CC3)c2C1 (stereo not drawn) [Example 98, 4-[4-(4-trifluoromethoxy-benzyl)-piperazine-1-sulfonyl]-indan-2-carboxylic acid] | > 5.30 | > 5.30 | 4.00 to 5.30
8 | C[C@@H]1CN(c2ccc(OC(F)(F)F)cn2)C[C@H](C)N1S(=O)(=O)c1cccc2c1CC(C(=O)O)C2 (stereo partly drawn) [Example 99] | > 5.30 | 4.00 to 5.30 | 4.00 to 5.30
9 | C[C@@H]1CN(c2ccc(OC(F)(F)F)cc2)C[C@H](C)N1S(=O)(=O)c1ccc2scc(CC(=O)O)c2c1 [Example 100, {5-[cis-2,6-dimethyl-4-(4-trifluoromethoxy-phenyl)-piperazine-1-sulfonyl]-benzo[b]thiophen-3-yl}-acetic acid] | > 5.30 | 4.00 to 5.30 | 4.00 to 5.30
10 | C[C@@H]1CN(c2ccc(SC(F)(F)F)cc2)C[C@H](C)N1S(=O)(=O)c1cccc2c1CC(C(=O)O)C2 (stereo partly drawn) [Example 101, 4-[cis-2,6-dimethyl-4-(4-trifluoromethylsulfanyl-phenyl)-piperazine-1-sulfonyl]-indan-2-carboxylic acid] | > 5.30 | 4.00 to 5.30 | 4.00 to 5.30
11 | O=C(O)C1Cc2cccc(S(=O)(=O)N3CCN(c4ccc(OC(F)(F)F)cc4)CC3)c2C1 (stereo not drawn) [Example 102, 4-[4-(-trifluoromethoxy-phenyl)-piperazine-1-sulfonyl]-indan-2-carboxylic acid] | > 5.30 | > 5.30 | > 5.30
12 | C[C@@H]1CN(c2ccc(Cl)cc2Cl)C[C@H](C)N1S(=O)(=O)c1ccc2c(c1)C(C(=O)O)CC2 (stereo partly drawn) [Example 103, 6-[4-(2,4-dichloro-phenyl)-cis-2,6-dimethyl-piperazine-1-sulfonyl]-indan-1-carboxylic acid] | > 5.30 | 4.00 to 5.30 | 4.00 to 5.30
13 | C[C@@H]1CN(c2ccc(C(F)(F)F)cc2)C[C@H](C)N1S(=O)(=O)c1ccc2c(c1)C(C(=O)O)CC2 (stereo partly drawn) [Example 104, 6-[cis-2,6-dimethyl-4-(4-trifluoromethyl-phenyl)-piperazine-1-sulfonyl]-indan-1-carboxylic acid] | > 5.30 | 4.00 to 5.30 | > 5.30
14 | C[C@@H]1CN(c2ccc(C(F)(F)F)cc2)C[C@H](C)N1S(=O)(=O)c1cccc2c1CC(C(=O)O)C2 (stereo partly drawn) [Example 105, 4-[cis-2,6-Dimethyl-4-(4-trifluoromethyl-phenyl)-piperazine-1-sulfonyl]-indan-2-carboxylic acid] | > 5.30 | 4.00 to 5.30 | 4.00 to 5.30
15 | C[C@@H]1CN(c2ccc(C(C)(C)C)cc2)C[C@H](C)N1S(=O)(=O)c1cccc2c1CC(C(=O)O)C2 (stereo partly drawn) [Example 106, 4-[4-(4-tert-butyl-phenyl)-cis-2,6-dimethyl-piperazine-1-sulfonyl]-indan-2-carboxylic acid] | > 5.30 | 4.00 to 5.30 | 4.00 to 5.30
16 | C[C@@H]1CN(c2cc(Cl)c(C(F)(F)F)cn2)C[C@H](C)N1S(=O)(=O)c1cccc2c1CC(C(=O)O)C2 (stereo partly drawn) [Example 107, 4-[4-(4-Chloro-5-trifluoromethyl-pyridin-2-yl)-cis-2,6-dimethylpiperazine-1-sulfonyl]-indan-2-carboxylic acid] | > 5.30 | < 4.00 | < 4.00
17 | C[C@@H]1CN(c2ccc(OC(F)(F)F)cc2)C[C@H](C)N1S(=O)(=O)c1cccc2c1CC(C(N)=O)C2 (stereo partly drawn) [Example 108, 4-[cis-2,6-dimethyl-4-(4-trifluoromethoxy-phenyl)-piperazine-1-sulfonyl]-indan-2-carboxylic acid amide] | > 5.30 | 4.00 to 5.30 | 4.00 to 5.30
18 | C[C@@H]1CN(c2ccc(OC(F)(F)F)cc2)C[C@H](C)N1S(=O)(=O)c1cccc2c1CC(c1nnn[nH]1)C2 (stereo partly drawn) [Example 109, cis-2,6-dimethyl-1-[2-(1H-tetrazol-5-yl)-indane-4-sulfonyl]-4-(4-trifluoromethoxy-phenyl)-piperazine] | > 5.30 | 4.00 to 5.30 | < 4.00
19 | C[C@@H]1CN(Cc2ccc(OC(F)(F)F)cc2)C[C@H](C)N1S(=O)(=O)c1ccc2scc(CC(=O)O)c2c1 [Example 110, {5-[cis-2,6-dimethyl-4-(4-trifluoromethoxy-benzyl)-piperazine-1-sulfonyl]-benzo[b]thiophen-3-yl}-acetic acid] | > 5.30 | 4.00 to 5.30 | < 4.00
20 | C[C@@H]1CN(Cc2ccc(Cl)c(Cl)c2)C[C@H](C)N1S(=O)(=O)c1cccc2c1CC(C(=O)O)C2 (stereo partly drawn) [Example 111] | > 5.30 | 4.00 to 5.30 | < 4.00
21 | O=C(O)C1Cc2cccc(S(=O)(=O)N3CCN(c4cccc(OCC(F)(F)F)c4)CC3)c2C1 (stereo not drawn) [Example 112, 4-{4-[3-(2,2,2-trifluoro-ethoxy)-phenyl]-piperazine-1-sulfonyl}-indan-2-carboxylic acid] | 4.00 to 5.30 | 4.00 to 5.30 | 4.00 to 5.30
22 | O=C(O)C1Cc2cccc(S(=O)(=O)N3CCN(c4cccc(OC(F)(F)F)c4)CC3)c2C1 (stereo not drawn) [Example 113, 4-[4-(3-Trifluomethoxy-phenyl)-piperazine-1-sulfonyl]-indan-2-carboxylic acid] | > 5.30 | 4.00 to 5.30 | 4.00 to 5.30
23 | O=C(O)C1Cc2cccc(S(=O)(=O)N3CCN(c4ccc(OCC(F)(F)F)cc4)CC3)c2C1 (stereo not drawn) [Example 114, 4-{4-[4-(2,2,2-Trifluoro-ethoxy)-phenyl]-piperazine-1-sulfonyl}-indan-2-carboxylic acid] | 4.00 to 5.30 | 4.00 to 5.30 | 4.00 to 5.30

Reference: patent US7517884B2 (Kalypsys Inc., priority 1998, dated 2009)
